# Publication PMC11345830, “Exploration of Hydrazide-Based HDAC8 PROTACs for the Treatment of Hematological Malignancies and Solid Tumors” (Journal of Medicinal Chemistry, 2024)
# Target: T1, HDAC6 (Homo sapiens, UniProt Q9UBN7)
# T1 sequence (Q9UBN7 1-1215): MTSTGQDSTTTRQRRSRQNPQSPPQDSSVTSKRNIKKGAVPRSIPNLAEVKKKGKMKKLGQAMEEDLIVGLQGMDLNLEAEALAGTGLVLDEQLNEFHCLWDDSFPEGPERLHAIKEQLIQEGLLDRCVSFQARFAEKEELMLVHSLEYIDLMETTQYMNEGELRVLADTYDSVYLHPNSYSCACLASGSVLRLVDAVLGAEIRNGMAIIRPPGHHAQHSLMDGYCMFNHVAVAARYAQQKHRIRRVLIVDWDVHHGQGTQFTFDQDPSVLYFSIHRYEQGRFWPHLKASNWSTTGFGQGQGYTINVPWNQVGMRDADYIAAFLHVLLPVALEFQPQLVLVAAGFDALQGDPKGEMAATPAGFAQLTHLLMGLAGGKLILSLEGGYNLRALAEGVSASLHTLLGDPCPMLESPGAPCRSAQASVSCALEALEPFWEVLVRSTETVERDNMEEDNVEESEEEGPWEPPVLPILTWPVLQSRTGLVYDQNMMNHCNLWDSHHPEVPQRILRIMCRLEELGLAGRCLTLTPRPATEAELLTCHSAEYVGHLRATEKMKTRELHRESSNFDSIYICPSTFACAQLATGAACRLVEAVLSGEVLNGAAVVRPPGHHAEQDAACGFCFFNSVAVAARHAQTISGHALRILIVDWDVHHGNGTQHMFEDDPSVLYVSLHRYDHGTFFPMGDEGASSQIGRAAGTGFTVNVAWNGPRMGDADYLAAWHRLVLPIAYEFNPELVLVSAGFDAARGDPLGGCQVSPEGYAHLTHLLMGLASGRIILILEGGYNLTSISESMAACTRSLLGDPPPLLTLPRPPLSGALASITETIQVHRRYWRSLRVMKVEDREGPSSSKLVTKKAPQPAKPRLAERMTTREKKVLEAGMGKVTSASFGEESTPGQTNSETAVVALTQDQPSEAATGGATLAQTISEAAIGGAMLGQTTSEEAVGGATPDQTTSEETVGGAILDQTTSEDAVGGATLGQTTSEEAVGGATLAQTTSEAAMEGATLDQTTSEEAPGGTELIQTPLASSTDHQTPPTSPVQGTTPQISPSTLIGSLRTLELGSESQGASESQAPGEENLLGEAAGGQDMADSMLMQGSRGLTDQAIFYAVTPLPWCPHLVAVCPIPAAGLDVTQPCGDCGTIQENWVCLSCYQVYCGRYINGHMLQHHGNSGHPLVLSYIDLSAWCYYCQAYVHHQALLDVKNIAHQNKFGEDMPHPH
# Test: HDAC6 level in HCT116 cells, Western blot
# Type: cell-based
# Design: endogenous in cells; host or cells: HCT116
# Details: 6 h
smiles,measurement,value
"CCCCCCNNC(=O)c1ccc(CNC(=O)CN2CCC(c3ccc(NC4CCC(=O)NC4=O)cc3)CC2)cc1 (stereo not shown) [Z16, 2-(4-(4-((2,6-Dioxopiperidin-3-yl)amino)phenyl)piperidin-1-yl)-N-(4-(2-hexylhydrazine-1-carbonyl)benzyl)acetamide]",impact on HDAC6 (in words),without significant impact
